Data set [1] deals with human dermal fibroblasts. The experiment in a line: Generation of pro-inflammatory cytokines by fibroblasts (multiplex ELISA). In kind it is cell-based. The following applies: KBM 1.5 mM calcium, two days, culture fluids. As for the experimental part: Fibroblasts were grown in KBM supplemented with 1.5 mM calcium (i.e., as in the fibroblast cytotoxicity assay) for two days. Culture fluids obtained at the end of the incubation period were assessed for several pro-inflammatory cytokines using a multiplex (ELISA-type) assay. Values shown are means and ranges based on duplicate samples in a single experiment. The experiment was repeated two times with similar results.
It is believed that the pro-inflammatory cytokines are “drivers” of the retinoid-induced skin irritation response. […] In this experiment, fibroblasts were cultured for two days in KBM supplemented with 1.5 mM calcium (i.e., as in the cytotoxicity assay). Culture fluids were collected after two days of incubation and subjected to a multiplex enzyme-linked immunosorbant assay (ELISA) for the following cytokines: TNF-α, IL-1β, IL-6, IL-8, MCP-1 and CXCL-1.

Data set [2] concerns human dermal fibroblasts. The experiment in a line: Retinoid-induced fibroblast survival under low-calcium conditions. The following applies: KBM 0.1 mM calcium, three days, 0.1 to 5 μg/mL. In kind it is cell-based. As for the experimental part: Human dermal fibroblasts are isolated from skin biopsies as described previously and grown in monolayer culture using DMEM supplemented with 10% fetal bovine serum as culture medium (see, e.g., Varani J, et al., J Clin Invest. 1994; 94; Varani J, et al., J. Invest. Dermatol. 94:717-723, 1990). Growth is at 37° C. in a humidified atmosphere containing 5% CO2 and 95% air. For experimental studies, cells are plated at 5×10^4 cells per well in wells of a 24-well culture dish in the same culture medium. One day later, cells are washed and the DMEM culture medium is replaced with Keratinocyte Basal Medium (KBM).
In this assay, low-passage human dermal fibroblasts are grown for three days in Keratinocyte Basal Medium (KBM) at a calcium concentration (0.1 mM) that is too low to support survival. […] How retinoids act to prevent fibroblast lysis is not fully understood, but part of the mechanism involves modulation of calcium transit across the cell membrane in the presence of the active retinoids (see, e.g., Varani J, et al., Am. J. Path. 136:1275-1281, 1990; Varani K, et al., Am J. Pathol. 147:718-729, 1995; Varani J, et al., Amer. J. Pathol. 148: 1307-1312, 1996).

The subject of the next data set is rhino mouse skin. The experiment in a line: Rhino mouse topical treatment: skin histology (horn-filled utriculi, epidermal thickness, inflammation). In kind it is in vivo. Conditions: topical, concentration not given; for inflammatory response / inflammatory cell infiltrate in histological sections (in words): 21 days. An excerpt: FIGS. 12A-C: Efficacy of retinoids at normalizing structure of rhino mouse skin after topical treatment for 21 days.
FIGS. 13A-C: Dose related effect of Example 2 on rhino mouse skin.
The rhinomouse model is an industry-standard pre-clinical model for evaluation of retinoids for anti-acne activity. The mice can be treated topically over a course of days with the desired compound (either formulated or in liquid solvent). During the course of treatment, the animals can be evaluated grossly for skin irritation. At the end of the treatment phase, the animals are euthanized. Skin from treated sites can be evaluated for efficacy—reduction in the number of horn-filled utriculi—and for histological evidence of inflammation.
As a control, Tretinoin-0.1% was used. […] This is a commonly-prescribed anti-acne medicine.
One day after the last treatment, animals were euthanized. The animals were injected with 7 ml 10% buffered formalin after euthanasia. 15 minutes later the treated area on the back of the mouse was removed and cut into 8 pieces. Every other piece was taken, so four pieces of skin were mounted in one cassette and fixed for histology. An extra piece of skin from a non-treated area was also evaluated.
Hematoxylin and eosin stained sections were evaluated microscopically for epidermal thickness with measurements made in the inter-follicular regions at 4 representative sites per tissue strip.
The number of horn-filled utriculi was determined by direct counting in the entire section of skin. Each of the four sections per biopsy was used for determining the number of utriculi. Section lengths were measured as a way to normalize findings. Typically, the section of skin varied from 16-20 mm.
Slides were examined microscopically and inflammation was scored on a 0 to 4+ basis. A score of zero indicated no inflammation while increasing collection of inflammatory cells was identified with increasing score. Slides were also evaluated to determine if inflammation was confined to the dermis or whether there was epidermal inflammation. Dermal inflammation was assessed to determine if inflammatory cells were scattered throughout the dermis or whether small abscesses were also present. Finally, the inflammatory lesions were evaluated to determine whether they consisted of primarily mononuclear cells, granulocytic cells or both. A similar scale has been used previously in the assessment of skin irritation.
At the end of the in-life portion of the study, mice were euthanized by CO2 overdose. Hematoxylin and eosin-stained histological sections from each mouse in the control, ATRA-treated and Compound 2-treated groups were evaluated with regard to the number of horn-filled utriculi, epidermal thickness, and inflammation. Briefly, the epidermis of control mice consisted of a thin epidermis with large numbers of horn-filled utriculi (98+10 per 20 mm of epidermal linear length). […] Both the ATRA-treated mouse (top right panel) the Compound 2 treated skin (bottom panel) show both much thickened […] and disappearance of utriculi. […] There were large numbers of inflammatory cells in the dermis. Microabscesses could be seen in places, and migration of inflammatory cells into the epidermis was also evident. The infiltrate consisted of both mononuclear cells and granulocytes. […] The three other experimental retinoids were also examined along with Compound 2. […] In FIG. 13 it can be seen that during the dosing period 0.1% of Compound 2 led to skin thickening, but incomplete resolution of the utricali, whereas at 0.3% the utricali were more fully resolved.

The subject of data set [3] is serum pro-inflammatory cytokines. Conditions: mouse, in vivo. An excerpt:
Each of the 4 experimental retinoids was made up in DMSO as 0.1% and 0.3% solutions. The material was applied to the treatment area (2 cm^2 area) on a dot marked area on the inter-scapular back) once daily for 7 consecutive days or for 21 consecutive days. The test agent was gently rubbed into the test site after application. As a control, Tretinoin-0.1% was used. […] This is a commonly-prescribed anti-acne medicine. A set amount of the test article, DMSO, DMSO plus test drug, or Tretinoin cream (35 mg) was delivered using a Gilson MICROMAN fully adjustable positive placement pipette.
Serum was obtained from all mice at the end of the study and evaluated for levels of pro-inflammatory cytokines. For this, the same multiplex ELISA used with human samples was employed except that mouse-recognizing antibodies replaced antibodies used to detect the human counterparts.

Data set [4] relates to systemic cytokine release. The following applies: intraperitoneal dosing; cited from earlier work.
For data set [5], the system named is human skin in organ culture. The following applies: cited from earlier work.
Another data set has as its system skin wounds. As to the kind of experiment: Wound healing in rats with steroid-induced atrophic skin. In kind it is in vivo, rat. An excerpt:
FIGS. 15A-C: Results from a study in rats in which the skin was made atrophic by topical steroid treatment and then wounded. […] In the control animal (15CL), there was incomplete re-epithelialization over the wound and little collagen deposition in the dermis. […] The lack of irritation/inflammation is expected in the control animal but is unusual for a retinoid-treated animal. The data shown here was consistent over n=5 animals per group.
Given the lack of irritation associated with MDI 301, experiments were conducted reasoning that this retinoid might work in the acute wound setting. Essentially, a group of rats were treated with a potent steroid to induce skin atrophy followed by a wounding of the skin. Following this, rats were treated with vehicle alone or with MDI 301. […] It should be noted that in this study ATRA cannot be used, as its irritant properties exacerbate the original injury.

“Also recorded” adds a separate entry of the source.

For the molecule `CC1=C(/C=C/C(C)=C\C=C\C(C)=C\C(=O)N2CCCC(=O)C2)C(C)(C)CCC1` [Example 3, 1-((2E,4E 6Z,8E)-3,7-dimethyl-9-(2,6,6-trimethylcyclohex-1-en-1-yl)nona-2,4,6,8-tetranonyl)piperidin-3-one], the “induction of pro-inflammatory cytokines (TNF-α, IL-1β, IL-6, IL-8, MCP-1, CXCL-1)” value in the data set on human dermal fibroblasts [1] is given as “much lower levels of the various cytokines than did ATRA”. Also, the “protection of fibroblasts from lysis (percentage of initially present cells still viable)” value with human dermal fibroblasts [2] is “capable of protecting fibroblasts from lysis under low-calcium conditions”. In the data set with rhino mouse skin, the “inflammatory response / inflammatory cell infiltrate in histological sections (in words)” value is given as “did not produce an inflammatory response” and the “number of utriculi compared to control (in words)” value was “reduced the number of utriculi as compared to control”. Moreover, in data set [3], the IL-1β serum level entry is reported as “low” and the TNF-α serum level entry was “low”.

As for `CC1=C(/C=C/C(C)=C\C=C\C(C)=C\C(=O)N(C)CC(=O)C2(C)CC2)C(C)(C)CCC1` [Example 4, (2E,4E,6Z,8E)-N,3,7-trimethyl—N-(2-(1-methylcyclopropyl)-2-oxoethyl)-9-(2,6,6-trimethylcyclohex-1-en-1-yl)nona-2,4,6,8-tetraenamide], in the data set with human dermal fibroblasts [1], the “induction of pro-inflammatory cytokines (TNF-α, IL-1β, IL-6, IL-8, MCP-1, CXCL-1)” value is listed as “much lower levels of the various cytokines than did ATRA; also recorded: comparable to Compound 1”. Further, the “protection of fibroblasts from lysis (percentage of initially present cells still viable)” value in the data set on human dermal fibroblasts [2] was “capable of protecting fibroblasts from lysis under low-calcium conditions”. For the same molecule, in the data set with rhino mouse skin, the “inflammatory response / inflammatory cell infiltrate in histological sections (in words)” value is reported as “did not produce an inflammatory response” and the “number of utriculi compared to control (in words)” value is reported as “reduced the number of utriculi as compared to control”. In data set [3], the IL-1β serum level entry is given as “low” and the TNF-α serum level entry is given as “low”.

Consider `CC1=C(/C=C/C(C)=C\C=C\C(C)=C\C(=O)OCC(=O)C(C)(C)C)C(C)(C)CCC1` [MDI 301], for which the systemic cytokine release entry in data set [4] was “did not elicit systemic cytokine release”. In data set [5] (human skin organ culture model), the “effect on collagen-degrading enzyme MMP-1 (collagenase 1)” value is given as “inhibited the major collagen-degrading enzyme (MMP-1, collagenase 1)” and the “procollagen I production” value is on record as “induced procollagen I production”. The “up-regulation of the pro-inflammatory cytokines that underlie retinoid-induced skin irritation” value in data set [5] (past studies) is “did not up-regulate the pro-inflammatory cytokines”. Further, in the data set with skin wounds (1% cream, after 13 days), the “histology of the wound site” value was “confluent layer of epithelial keratinocytes over the wound site and a pronounced zone of fibroblast proliferation with new collagen formation under the epithelial layer”; the “skin irritation and inflammation at the wound site” value is “lack of skin irritation (15BR) and lack of inflammation (15CR)”. In addition, the “healing of skin wounds compared to control rats” value in the data set with skin wounds (1.0% cream, ~100 mgs daily to wound periphery, 13 days) is reported as “healed more rapidly”.

The record behind these values is US11148998B2, “Dimethyl-nonatetraenyl-trimethyl-cyclohexyl compounds and uses thereof” (The Regents of the University of Michigan, priority 2017, dated 2021).
